Tested on: Plasmodium berghei
Assay: Luciferase/luciferin-expressing antifolate-resistant parasites were used to infect a culture of HepG2 cells that were pre-incubated with compounds. Infected hepatocytes emit light due to the luciferase reaction. Assay results are presented as the percent inhibition of light emission compared to control. […]
Type: functional
Conditions: sporozoite; for IC90: read-out: LUCIFERASE INFECTION ASSAY - IC90

## COc1cc(/C=C(/C(=O)c2cccs2)c2nc3ccccc3[nH]2)cc(OC)c1O
HEPG2TOX_HILL_SLOPE 9.16, HEPG2TOX_R_SQUARED 0.911, PBLUC_HILL_SLOPE 3.79, PBLUC_R_SQUARED 0.1, read-out: LUCIFERASE INFECTION ASSAY - IC50
  IC50: 7.39 µM
  IC90: > 10 µM

## O=C(NC1CC1)c1ccc(-c2cn3c(-c4ccc(O)cc4)cnc3cn2)cc1
HEPG2TOX_HILL_SLOPE 9.19, HEPG2TOX_R_SQUARED 0.833, PBLUC_HILL_SLOPE 2.2, PBLUC_R_SQUARED 0.157, read-out: LUCIFERASE INFECTION ASSAY - IC50
  IC50: 7.74 µM
  IC90: > 8.91 µM

## Fc1ccc(-c2ccnc3n[nH]c(C4CC4)c23)cc1Cl
HEPG2TOX_HILL_SLOPE 9.31, HEPG2TOX_R_SQUARED 0.217, read-out: LUCIFERASE INFECTION ASSAY - IC50
  IC50: > 10 µM
  IC90: > 10 µM

## O=C(Cc1csc(-c2ccccc2Cl)n1)NCCCCOc1ccc(F)cc1
HEPG2TOX_HILL_SLOPE 9.37, HEPG2TOX_R_SQUARED 0.776, PBLUC_HILL_SLOPE 2.48, PBLUC_R_SQUARED 0.584, read-out: LUCIFERASE INFECTION ASSAY - IC50
  IC50: 5.48 µM
  IC90: > 10 µM

## CCc1ccc(OCC(O)Cn2c(=O)c3ccccc3n3nc(C)cc23)cc1 (centres undefined)
HEPG2TOX_HILL_SLOPE 9.12, HEPG2TOX_R_SQUARED 0.677, PBLUC_HILL_SLOPE 3.87, PBLUC_R_SQUARED 0.197, read-out: LUCIFERASE INFECTION ASSAY - IC50
  IC50: 5.34 µM
  IC90: 9.43 µM

## CN(C)c1ccc(C(=O)N2CCc3nc(NCc4cccc(Oc5ccccc5)c4)ncc3C2)cc1
HEPG2TOX_HILL_SLOPE 9.14, HEPG2TOX_R_SQUARED 0.261, read-out: LUCIFERASE INFECTION ASSAY - IC50
  IC50: > 6.88 µM
  IC90: > 6.88 µM

## Oc1c(Br)cc(/C=C/c2nc3cc(Cl)ccc3o2)cc1Br
HEPG2TOX_HILL_SLOPE 9.25, HEPG2TOX_R_SQUARED 0.294, read-out: LUCIFERASE INFECTION ASSAY - IC50
  IC50: > 10 µM
  IC90: > 10 µM

## CC(=O)NC(C)CCc1ccc(C(=O)Cn2ncc(Cl)c(Cl)c2=O)cc1 (centres undefined)
HEPG2TOX_HILL_SLOPE 9.09, HEPG2TOX_R_SQUARED 0.148, PBLUC_HILL_SLOPE 4.21, PBLUC_R_SQUARED 0.695, read-out: LUCIFERASE INFECTION ASSAY - IC50
  IC50: 5.55 µM
  IC90: 9.36 µM

## Brc1ccc(-c2noc(CCc3nc4ccccc4[nH]3)n2)cc1
HEPG2TOX_HILL_SLOPE 9.24, HEPG2TOX_R_SQUARED 0.722, PBLUC_HILL_SLOPE 3.58, PBLUC_R_SQUARED 0.661, read-out: LUCIFERASE INFECTION ASSAY - IC50
  IC50: 3.83 µM
  IC90: 7.07 µM

## CN(C)CCCOc1ccc(-c2nnc3ccc(-c4cccc(Cl)c4)cn23)cc1
HEPG2TOX_HILL_SLOPE 9.26, HEPG2TOX_R_SQUARED 0.159, PBLUC_HILL_SLOPE 2.15, PBLUC_R_SQUARED 0.0523, read-out: LUCIFERASE INFECTION ASSAY - IC50
  IC50: 7.9 µM
  IC90: > 10 µM

## FC(F)(F)c1cnc(N/N=C/c2cccs2)c(Cl)c1
HEPG2TOX_HILL_SLOPE 9.1, HEPG2TOX_R_SQUARED 0.955, PBLUC_HILL_SLOPE 28.7, PBLUC_R_SQUARED 0.321, read-out: LUCIFERASE INFECTION ASSAY - IC50
  IC50: 9.82 µM
  IC90: 10.6 µM

## Cc1nc(Sc2nnnn2-c2ccccc2)c2c3c(sc2n1)CCC3
HEPG2TOX_HILL_SLOPE 9.14, HEPG2TOX_R_SQUARED 0.239, read-out: LUCIFERASE INFECTION ASSAY - IC50
  IC50: > 10 µM
  IC90: > 10 µM

## CC(C)(C)c1csc(-c2ccc(-n3cncn3)nc2)n1
HEPG2TOX_HILL_SLOPE 9.36, HEPG2TOX_R_SQUARED 0.478, read-out: LUCIFERASE INFECTION ASSAY - IC50
  IC50: > 11.6 µM
  IC90: > 11.6 µM

## COc1ccc(NC(C)=O)cc1Nc1nc(C(F)(F)F)nc2ccccc12
HEPG2TOX_HILL_SLOPE 9.23, HEPG2TOX_R_SQUARED 0.863, PBLUC_HILL_SLOPE 3.13, PBLUC_R_SQUARED 0.379, read-out: LUCIFERASE INFECTION ASSAY - IC50
  IC50: 6.22 µM
  IC90: > 10 µM

## Nc1ncnc(Sc2nnnn2-c2ccccc2)c1[N+](=O)[O-]
HEPG2TOX_HILL_SLOPE 9.17, HEPG2TOX_R_SQUARED 0.951, read-out: LUCIFERASE INFECTION ASSAY - IC50
  IC50: > 10 µM
  IC90: > 10 µM

## Cc1nc(N2CCc3ccccc32)c2c3c(sc2n1)CCC3
HEPG2TOX_HILL_SLOPE 9.23, HEPG2TOX_R_SQUARED 0.902, PBLUC_HILL_SLOPE 9.42, PBLUC_R_SQUARED 0.51, read-out: LUCIFERASE INFECTION ASSAY - IC50
  IC50: 3.68 µM
  IC90: 4.64 µM

## CNS(=O)(=O)c1cc(C(=O)OCc2ccc(-c3ccccc3C#N)cc2)n(C)c1
HEPG2TOX_HILL_SLOPE 9.24, HEPG2TOX_R_SQUARED 0.528, PBLUC_HILL_SLOPE 2.62, PBLUC_R_SQUARED 0.748, read-out: LUCIFERASE INFECTION ASSAY - IC50
  IC50: 5.4 µM
  IC90: > 10 µM

## Cc1cc(/C=C(\C#N)c2nc3ccccc3[nH]2)c(C)n1-c1cc(C(F)(F)F)ccc1Cl
HEPG2TOX_HILL_SLOPE 9.28, HEPG2TOX_R_SQUARED 0.884, PBLUC_HILL_SLOPE 1.82, PBLUC_R_SQUARED 0.761, read-out: LUCIFERASE INFECTION ASSAY - IC50
  IC50: 1.5 µM
  IC90: 5.02 µM

## CC(C)Cn1c(N)c(C(=O)COC(=O)c2c3c(nc4ccccc24)CCCCC3)c(=O)n(C)c1=O
HEPG2TOX_HILL_SLOPE 9.18, HEPG2TOX_R_SQUARED 0.068, PBLUC_HILL_SLOPE 16.7, PBLUC_R_SQUARED 0.609, read-out: LUCIFERASE INFECTION ASSAY - IC50
  IC50: 1.11 µM
  IC90: 1.27 µM

## Cc1cc(N(C)C(C)c2ccc(-n3cnc4ccccc43)cc2)n2ncnc2n1 (centres undefined)
HEPG2TOX_HILL_SLOPE 9.21, HEPG2TOX_R_SQUARED 0.124, PBLUC_HILL_SLOPE 9.5, PBLUC_R_SQUARED 0.615, read-out: LUCIFERASE INFECTION ASSAY - IC50
  IC50: 8.2 µM
  IC90: > 10 µM

## CCCOc1c(Cl)cc(C(=O)N2CCN(c3cccc(C)c3C)CC2)cc1OC
HEPG2TOX_HILL_SLOPE 9.26, HEPG2TOX_R_SQUARED 0.489, PBLUC_HILL_SLOPE 10.9, 0.598, PBLUC_R_SQUARED 0.349, 0.728, read-out: LUCIFERASE INFECTION ASSAY - IC50
  IC50: 3.13 µM
  IC90: > 10 µM

## Cc1ccc(-n2nc(C)c(NC(=O)COc3ccc4c(=O)c(-c5ccccc5)coc4c3)c2C)cc1
HEPG2TOX_HILL_SLOPE 9.24, HEPG2TOX_R_SQUARED 0.0911, PBLUC_HILL_SLOPE 28.6, PBLUC_R_SQUARED 0.544, read-out: LUCIFERASE INFECTION ASSAY - IC50
  IC50: 3.37 µM
  IC90: 3.64 µM

## CCN(CC)S(=O)(=O)c1cc(C(=O)Nc2nc3ccccc3[nH]2)n(C)c1
HEPG2TOX_HILL_SLOPE 9.29, HEPG2TOX_R_SQUARED 0.829, PBLUC_HILL_SLOPE 13.1, PBLUC_R_SQUARED 0.63, read-out: LUCIFERASE INFECTION ASSAY - IC50
  IC50: 8.06 µM
  IC90: 9.54 µM

## O=C(Nc1ccc(Cl)c(Cl)c1)OCCNC(=O)c1cccc(S(=O)(=O)N2CCCC2)c1
HEPG2TOX_HILL_SLOPE 9.3, HEPG2TOX_R_SQUARED 0.805, PBLUC_HILL_SLOPE 3.66, PBLUC_R_SQUARED 0.453, read-out: LUCIFERASE INFECTION ASSAY - IC50
  IC50: 5.1 µM
  IC90: 9.3 µM

## CCCOc1ccc(S(=O)(=O)NC2CCCCC2)c2ccccc12
HEPG2TOX_HILL_SLOPE 9.17, HEPG2TOX_R_SQUARED 0.712, PBLUC_HILL_SLOPE 2.91, PBLUC_R_SQUARED 0.385, read-out: LUCIFERASE INFECTION ASSAY - IC50
  IC50: 4.03 µM
  IC90: 8.57 µM

## CCN(CC)c1ccc(C(=O)NNS(=O)(=O)c2c(F)cc(F)c(Cl)c2F)cc1
HEPG2TOX_HILL_SLOPE 9.38, HEPG2TOX_R_SQUARED 0.741, PBLUC_HILL_SLOPE 14.6, PBLUC_R_SQUARED 0.427, read-out: LUCIFERASE INFECTION ASSAY - IC50
  IC50: 9.22 µM
  IC90: > 10 µM

## O=C(CCN1CCN(c2ccc([N+](=O)[O-])cc2)CC1)N1CCN(c2ccccn2)CC1
HEPG2TOX_HILL_SLOPE 9.17, HEPG2TOX_R_SQUARED 0.128, PBLUC_HILL_SLOPE 14.9, PBLUC_R_SQUARED 0.446, read-out: LUCIFERASE INFECTION ASSAY - IC50
  IC50: 3.94 µM
  IC90: 4.57 µM

## Cc1ccc(/C=N/Nc2nn3c(=O)c4ccccc4nc3c3ccccc23)o1
HEPG2TOX_HILL_SLOPE 9.29, HEPG2TOX_R_SQUARED 0.957, PBLUC_HILL_SLOPE 5.5, PBLUC_R_SQUARED 0.698, read-out: LUCIFERASE INFECTION ASSAY - IC50
  IC50: 5.7 µM
  IC90: 8.5 µM

## O=C(Nc1cccc(C(F)(F)F)c1)Nc1ccc2c(c1)no[n+]2[O-]
HEPG2TOX_HILL_SLOPE 9.23, HEPG2TOX_R_SQUARED 0.804, PBLUC_HILL_SLOPE 15.5, PBLUC_R_SQUARED 0.688, read-out: LUCIFERASE INFECTION ASSAY - IC50
  IC50: 1.04 µM
  IC90: 1.2 µM

## COCCNc1ccc([N+](=O)[O-])cc1C(=O)Nc1nc2c(C)cccc2s1
HEPG2TOX_HILL_SLOPE 9.09, HEPG2TOX_R_SQUARED 0.757, PBLUC_HILL_SLOPE 15.6, PBLUC_R_SQUARED 0.06, read-out: LUCIFERASE INFECTION ASSAY - IC50
  IC50: 9.61 µM
  IC90: > 10 µM

## CCC(C)(C)c1ccc(Oc2ccc(NC(=O)CSc3nnc(-c4ccccc4)[nH]3)cc2)cc1
HEPG2TOX_HILL_SLOPE 9.08, HEPG2TOX_R_SQUARED 0.57, PBLUC_HILL_SLOPE 3.67, PBLUC_R_SQUARED 0.581, read-out: LUCIFERASE INFECTION ASSAY - IC50
  IC50: 4.28 µM
  IC90: 7.78 µM

## Cc1noc(C)c1COc1ccc(C(=O)OCC(=O)NCCC2=CCCCC2)cc1
HEPG2TOX_HILL_SLOPE 9.34, HEPG2TOX_R_SQUARED 0.702, PBLUC_HILL_SLOPE 3.46, PBLUC_R_SQUARED 0.677, read-out: LUCIFERASE INFECTION ASSAY - IC50
  IC50: 4.45 µM
  IC90: 8.4 µM
